Measured values taken from the supplement of paper PMC13380429.

What was measured:
A549-ACE2 [1] = test: drug-induced phospholipidosis relative to tamoxifen; higher = more phospholipidosis
U2OS [2] = test: relative viability EC50 (midpoint between 100% and the lowest measured viability); higher = less toxic; details: 72 h
Calu-3 [3] = test: as above; details: 72 h
HepG2 [4] = test: as above; details: 72 h
Caco-2 [5] = test: as above; details: 72 h
U2OS [6] = test: drug sensitivity score (DSS) for viability; higher = more toxic; extreme values may be limits of the assay; details: 72 h
Calu-3 [7] = test: as above; details: 72 h
HepG2 [8] = test: as above; details: 72 h
Caco-2 [9] = test: as above; details: 72 h
[10] = system: A549-ACE2 infected with SARS-CoV-2; test: morphology score (similarity to uninfected cells); higher = more like uninfected cells; details: 24 h
A549-ACE2 [11] = test: phospholipidosis EC50; higher = less potent phospholipidosis inducer
[12] = system: A549-ACE2 infected with SARS-CoV-2; test: cell count relative to DMSO; higher = less toxic; details: 24 h
[13] = system: A549-ACE2 infected with SARS-CoV-2; test: SARS-CoV-2 infection rate relative to DMSO; higher = more infection; details: 24 h
U2OS [14] = test: cell viability relative to DMSO; higher = less toxic; details: 72 h
Calu-3 [15] = test: as above; details: 72 h
HepG2 [16] = test: as above; details: 72 h
Caco-2 [17] = test: as above; details: 72 h
Vero E6 [18] = test: relative viability EC50 (midpoint between 100% and the lowest measured viability); higher = less toxic; details: 72 h
Vero E6 [19] = test: drug sensitivity score (DSS) for viability; higher = more toxic; extreme values may be limits of the assay; details: 72 h
Vero E6 [20] = test: cell viability relative to DMSO; higher = less toxic; details: 72 h

CN1CC2c3ccccc3Oc3ccc(Cl)cc3C2C1 (stereo not drawn) [asenapine]
drug-induced phospholipidosis [%], A549-ACE2 [1]
Details | 0.3 µM | 0.833333 µM | 3.33333 µM | 6.66667 µM | 10 µM | 30 µM
24 h | 0.93 | 1.66 | 23.3 | 56.2 | 82.5 | 115
48 h | 2.52 | 0.05 | 14.9 | 49 | 77.2 | 111
72 h | 4.59 | 1.7 | 16.8 | 43.5 | 70.2 | 117

Details | drug sensitivity score | relative viability EC50 [µM]
Caco-2 [5] | – | > 10
Caco-2 [9] | 0 | –
Calu-3 [3] | – | > 10
Calu-3 [7] | 0 | –
HepG2 [4] | – | > 10
HepG2 [8] | 0 | –
U2OS [2] | – | > 10
U2OS [6] | 0 | –

Details | SARS-CoV-2 infection rate [%] | cell count [%] | cell viability [%] | morphology score | phospholipidosis EC50 [µM]
A549-ACE2 [11], 24 h | – | – | – | – | 7.2
A549-ACE2 [11], 48 h | – | – | – | – | 7.65
A549-ACE2 [11], 72 h | – | – | – | – | 9.6
Caco-2 [17], 1 nM | – | – | 94.9 | – | –
Caco-2 [17], 10 nM | – | – | 108 | – | –
Caco-2 [17], 100 nM | – | – | 106 | – | –
Caco-2 [17], 1000 nM | – | – | 108 | – | –
Caco-2 [17], 10000 nM | – | – | 109 | – | –
Calu-3 [15], 1 nM | – | – | 94.9 | – | –
Calu-3 [15], 10 nM | – | – | 96.5 | – | –
Calu-3 [15], 100 nM | – | – | 90.8 | – | –
Calu-3 [15], 1000 nM | – | – | 104 | – | –
Calu-3 [15], 10000 nM | – | – | 89.2 | – | –
HepG2 [16], 1 nM | – | – | 112 | – | –
HepG2 [16], 10 nM | – | – | 106 | – | –
HepG2 [16], 100 nM | – | – | 103 | – | –
HepG2 [16], 1000 nM | – | – | 96.3 | – | –
HepG2 [16], 10000 nM | – | – | 96.7 | – | –
U2OS [14], 1 nM | – | – | 99.5 | – | –
U2OS [14], 10 nM | – | – | 105 | – | –
U2OS [14], 100 nM | – | – | 101 | – | –
U2OS [14], 1000 nM | – | – | 108 | – | –
U2OS [14], 10000 nM | – | – | 98.2 | – | –
[10], 0.3 µM | – | – | – | 0.2 | –
[10], 3 µM | – | – | – | 0.63 | –
[10], 10 µM | – | – | – | 0.71 | –
[10], 30 µM | – | – | – | 0.39 | –
[12], 0.3 µM | – | 102 | – | – | –
[12], 3 µM | – | 118 | – | – | –
[12], 10 µM | – | 109 | – | – | –
[12], 30 µM | – | 102 | – | – | –
[13], 0.3 µM | 94 | – | – | – | –
[13], 3 µM | 59 | – | – | – | –
[13], 10 µM | 32 | – | – | – | –
[13], 30 µM | 30 | – | – | – | –

COC(=O)[C@@]12OC[C@]34[C@H]([C@@H](O)[C@@H]1O)[C@@]1(C)CC(=O)C(O)=C(C)[C@@H]1C[C@H]3OC(=O)[C@H](OC(=O)/C=C(\C)C(C)C)[C@@H]24 [bruceantin]
Details | drug sensitivity score | relative viability EC50 [µM]
Caco-2 [5] | – | 0.0261
Caco-2 [9] | 23.9 | –
Calu-3 [3] | – | 0.0659
Calu-3 [7] | 21.3 | –
HepG2 [4] | – | 0.0238
HepG2 [8] | 31 | –
U2OS [2] | – | 0.0133
U2OS [6] | 34.5 | –
Vero E6 [18] | – | 0.133
Vero E6 [19] | 21.5 | –

Details | SARS-CoV-2 infection rate, [13] [%] | cell count, [12] [%] | cell viability, Caco-2 [17] [%] | cell viability, Calu-3 [15] [%] | cell viability, HepG2 [16] [%] | cell viability, U2OS [14] [%] | cell viability, Vero E6 [20] [%] | morphology score, [10]
1 nM | – | – | 102 | 96.7 | 92.8 | 103 | 101 | –
10 nM | – | – | 78.4 | 102 | 76.2 | 58.3 | 104 | –
0.1 µM | 12 | 62 | – | – | – | – | – | 0.3
100 nM | – | – | 37.7 | 41.4 | 13.8 | 9 | 59.1 | –
0.3 µM | 16 | 62 | – | – | – | – | – | 0.26
1 µM | 20 | 54 | – | – | – | – | – | 0.24
1000 nM | – | – | 25.5 | 26.5 | 4.6 | 1.8 | 11.4 | –
3 µM | 12 | 38 | – | – | – | – | – | 0.33
10000 nM | – | – | 22.4 | 21 | 0.9 | 0.1 | 2.5 | –
